Assay [1] concerns the target Muscarinic acetylcholine receptor M3 (Homo sapiens, UniProt P20309). Description: Displacement of [3H]-NMS from human recombinant M3 receptor expressed in CHO cell membranes measured after 60 mins by topcount liquid scintillation counting.
A further assay deals with Cavia porcellus. In words: Bronchoprotective activity in Dunkan-Hartley guinea pig model of acetylcholine-induced bronchoconstriction assessed as efficacious dose that limited bronchrestriction response to 50 ug/mL dose of acetylcholine to doubling of baseline pulmonary resistance administered via nebulization for 10 mins measured at 1.5 hrs post dose by whole body plethysmography. The format is functional.

Bounds are passed on as bounds.

Chain of Muscarinic acetylcholine receptor M3 (P20309 whole entry): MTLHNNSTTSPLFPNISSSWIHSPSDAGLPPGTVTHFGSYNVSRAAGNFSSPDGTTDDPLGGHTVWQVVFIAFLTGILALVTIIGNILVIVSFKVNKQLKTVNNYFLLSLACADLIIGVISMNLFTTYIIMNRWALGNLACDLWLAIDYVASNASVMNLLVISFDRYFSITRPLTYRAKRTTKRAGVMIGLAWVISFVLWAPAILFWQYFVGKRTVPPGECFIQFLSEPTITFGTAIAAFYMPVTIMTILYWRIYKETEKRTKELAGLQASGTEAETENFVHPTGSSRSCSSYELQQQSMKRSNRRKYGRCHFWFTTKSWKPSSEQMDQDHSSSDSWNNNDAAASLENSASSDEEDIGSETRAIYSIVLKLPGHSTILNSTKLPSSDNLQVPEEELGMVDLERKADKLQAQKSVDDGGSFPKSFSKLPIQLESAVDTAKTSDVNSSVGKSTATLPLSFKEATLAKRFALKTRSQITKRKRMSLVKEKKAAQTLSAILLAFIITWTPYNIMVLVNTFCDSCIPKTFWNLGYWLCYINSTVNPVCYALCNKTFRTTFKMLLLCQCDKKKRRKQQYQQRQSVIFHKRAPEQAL

`CCN(CCN1CCC(OC(=O)Nc2ccccc2-c2ccccc2)CC1)C(=O)c1ccc(CN2CCC(C(N)=O)CC2)cc1`: the Ki (as a rule, the dissociation constant of the complex between target and ligand, obtained from inhibition or displacement) in assay [1] was less than 5 nM.
For `CN(CCN1CCC(OC(=O)Nc2ccccc2-c2ccccc2)CC1)C(=O)c1ccc(CN2CCC(C(N)=O)CC2)cc1` [REVEFENACIN], the ED with Cavia porcellus is less than 200 µg/mL.

Source of the values: ChEMBL document CHEMBL3882243, “Biphenyl compounds useful as muscarinic receptor antagonists” (2005).
